In patent US11000033B2, “Ketone or oxime compound, and herbicide” (NISSAN CHEMICAL CORPORATION, priority 2014, dated 2021):

How the values were obtained:
Format in all cases: in vivo
wheat [1] = experiment: Test Example 4: effect on crop by soil treatment (symbol e); conditions: application herbicide amount 320 g/ha
Outline: (§1)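 Greenhouse culture at 25° C. to 30° C. followed sowing of seed in spots on sterilized diluvial soil with a soil cover close to 1.5 cm thick.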

[2] = system: Echinochloa oryzacola Vasing.; experiment: Test Example 1: herbicidal activity, application before weed generation in submerged conditions (symbol A); conditions: application herbicide amount 320 g/ha
Outline: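 Ratings (5: ≥90%, near complete withering; 4: 70–<90%; 3: 40–<70%; 2: 20–<40%; 1: 5–<20%; 0: ≤5%) were assigned 3 weeks after the diluted emulsion was applied to the water surface of freshly sown, submerged pots.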

wheat [3] = experiment: Test Example 5: effect on crop by foliage application, plastic box (symbol e); conditions: 320 g/ha, 3 weeks after application
Outline: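 Greenhouse culture at 25° C. to 30° C. followed spot-like sowing into sterilized diluvial soil, with seed covered by roughly 1.5 cm of soil.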

Alopecurus myosuroides [4] = experiment: Test Example 5: herbicidal effect by foliage application, plastic box (symbol J); conditions: 320 g/ha, 3 weeks after application
Outline: (§2)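 Effect is rated 3 weeks after a foliar spray of water-diluted emulsion concentrate at a predetermined herbicide amount. Plants had grown 14 days in a 25° C. to 30° C. greenhouse from seed in sterilized diluvial soil.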

Monochoria vaginalis = experiment: Test Example 2: herbicidal activity, application during weed generation in submerged conditions (symbol C); conditions: Table 23; application herbicide amount 320 g/ha; grade 0-5 by criteria of Test Example 1
Outline: (§3)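 Read-out: herbicidal effect on each species rated on a visual scale 3 weeks after treatment. Plants were raised together from seed in flooded alluvial soil (4 cm water) at 25° C. to 30° C. and treated at one to two leaves by water-surface application of diluted emulsion.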

Alopecurus myosuroides [5] = experiment: Test Example 4: herbicidal effect by soil treatment (symbol J); conditions: application herbicide amount 320 g/ha
Outline: (§4)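 Seeds were sown in sterilized diluvial soil, covered with about 1.5 cm of soil, and the soil surface was sprayed with a water-diluted emulsion of the compound at a predetermined rate. Plants grew in a greenhouse at 25° C. to 30° C.; effects were scored visually 3 weeks after application.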

Amaranthus retroflexus = experiment: Test Example 5: herbicidal effect by foliage application, plastic box (symbol N); conditions: 320 g/ha, 3 weeks after application
Outline: as §2

soybean = experiment: Test Example 4: effect on crop by soil treatment (symbol d); conditions: application herbicide amount 320 g/ha
Outline: as §1

[6] = system: Echinochloa crus-galli var. crus-galli; experiment: Test Example 4: herbicidal effect by soil treatment (symbol H); conditions: application herbicide amount 320 g/ha
Outline: as §4

beet = experiment: Test Example 4: effect on crop by soil treatment (symbol f); conditions: application herbicide amount 320 g/ha
Outline: as §1

Cyperus difformis = experiment: Test Example 3: herbicidal effect by foliage application, Wagner pot (symbol E); conditions: application herbicide amount 320 g/ha
Outline: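 Scoring took place 3 weeks after application, using fixed criteria. Plants had been raised from seed for 14 days at 25 to 30 °C in submerged alluvial soil before a diluted emulsion of the test compound was sprayed uniformly on the leaves.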

[7] = system: Echinochloa oryzacola Vasing.; experiment: Test Example 2: herbicidal activity, application during weed generation in submerged conditions (symbol A); conditions: Table 23; application herbicide amount 320 g/ha; grade 0-5 by criteria of Test Example 1
Outline: as §3

| Compound | Effect on crop grade, e: wheat (wheat [1]) | Herbicidal effect grade, A: Echinochloa oryzacola Vasing. [2] | e: wheat, effect on crop (criteria of Test Example 1) (wheat [3]) | J: Alopecurus myosuroides, herbicidal effect (criteria of Test Example 1) (Alopecurus myosuroides [4]) | Herbicidal effect grade, C: Monochoria vaginalis (Monochoria vaginalis) | Herbicidal effect grade, J: Alopecurus myosuroides (Alopecurus myosuroides [5]) | N: Amaranthus retroflexus, herbicidal effect (criteria of Test Example 1) (Amaranthus retroflexus) | Effect on crop grade, d: soybean (soybean) | Herbicidal effect grade, H: Echinochloa crus-galli var. crus-galli [6] | Effect on crop grade, f: beet (beet) | herbicidal effect on E, grade 0-5 (Cyperus difformis) | Herbicidal effect grade, A: Echinochloa oryzacola Vasing. [7] |
| --- | --- | --- | --- | --- | --- | --- | --- | --- | --- | --- | --- | --- |
| CON=C(C)CC1CC(OC(=O)N2CCOCC2)=C(c2c(C)cc(-c3ccc(F)c(Cl)c3)cc2C)C1=O (stereo not drawn) [6-093] | 0 (Herbicidal ratio of 5% or lower (almost no effect)) | 5 (Herbicidal ratio of 90% or more (almost completely withered)) | 5 (Herbicidal ratio of 90% or more (almost completely withered)) | 5 (Herbicidal ratio of 90% or more (almost completely withered)) | 3 (Herbicidal ratio of 40% or higher and lower than 70%) | 3 (Herbicidal ratio of 40% or higher and lower than 70%) | 3 (Herbicidal ratio of 40% or higher and lower than 70%) | 0 (Herbicidal ratio of 5% or lower (almost no effect)) | 5 (Herbicidal ratio of 90% or more (almost completely withered)) | 0 (Herbicidal ratio of 5% or lower (almost no effect)) | 4 (Herbicidal ratio of 70% or higher and lower than 90%) | 5 (Herbicidal ratio of 90% or more (almost completely withered)) |
| CON=C(C)CC1CC(OC(=O)N2CCOCC2)=C(c2c(C)cc(C)cc2OC)C1=O (stereo not drawn) [6-094] | 0 (Herbicidal ratio of 5% or lower (almost no effect)) | 5 (Herbicidal ratio of 90% or more (almost completely withered)) | 4 (Herbicidal ratio of 70% or higher and lower than 90%) | 5 (Herbicidal ratio of 90% or more (almost completely withered)) | 1 (Herbicidal ratio of 5% or higher and lower than 20%) | 5 (Herbicidal ratio of 90% or more (almost completely withered)) | 0 (Herbicidal ratio of 5% or lower (almost no effect)) | 0 (Herbicidal ratio of 5% or lower (almost no effect)) | 5 (Herbicidal ratio of 90% or more (almost completely withered)) | 0 (Herbicidal ratio of 5% or lower (almost no effect)) | 5 (Herbicidal ratio of 90% or more (almost completely withered)) | 5 (Herbicidal ratio of 90% or more (almost completely withered)) |
| CON=C(C)CC1CC(OS(=O)(=O)N(C)C)=C(c2c(C)cc(C)cc2OC)C1=O (stereo not drawn) [6-095] | 2 (Herbicidal ratio of 20% or higher and lower than 40%) | 5 (Herbicidal ratio of 90% or more (almost completely withered)) | 4 (Herbicidal ratio of 70% or higher and lower than 90%) | 5 (Herbicidal ratio of 90% or more (almost completely withered)) | 2 (Herbicidal ratio of 20% or higher and lower than 40%) | 5 (Herbicidal ratio of 90% or more (almost completely withered)) | 0 (Herbicidal ratio of 5% or lower (almost no effect)) | 0 (Herbicidal ratio of 5% or lower (almost no effect)) | 5 (Herbicidal ratio of 90% or more (almost completely withered)) | 0 (Herbicidal ratio of 5% or lower (almost no effect)) | 5 (Herbicidal ratio of 90% or more (almost completely withered)) | 5 (Herbicidal ratio of 90% or more (almost completely withered)) |
| CON=C(C)CC1CC(O)=C(c2c(C)cc(-c3ccccc3)cc2OC)C1=O (stereo not drawn) [6-099] | 5 (Herbicidal ratio of 90% or more (almost completely withered)) | 5 (Herbicidal ratio of 90% or more (almost completely withered)) | 5 (Herbicidal ratio of 90% or more (almost completely withered)) | 5 (Herbicidal ratio of 90% or more (almost completely withered)) | 5 (Herbicidal ratio of 90% or more (almost completely withered)) | 5 (Herbicidal ratio of 90% or more (almost completely withered)) | 4 (Herbicidal ratio of 70% or higher and lower than 90%) | 0 (Herbicidal ratio of 5% or lower (almost no effect)) | 5 (Herbicidal ratio of 90% or more (almost completely withered)) | 2 (Herbicidal ratio of 20% or higher and lower than 40%) | 5 (Herbicidal ratio of 90% or more (almost completely withered)) | 5 (Herbicidal ratio of 90% or more (almost completely withered)) |
| CON=C(C)CC1CC(OC(=O)COc2ccccc2)=C(c2c(C)cc(-c3ccccc3)cc2OC)C1=O (stereo not drawn) [6-100] | 3 (Herbicidal ratio of 40% or higher and lower than 70%) | 5 (Herbicidal ratio of 90% or more (almost completely withered)) | 5 (Herbicidal ratio of 90% or more (almost completely withered)) | 5 (Herbicidal ratio of 90% or more (almost completely withered)) | 5 (Herbicidal ratio of 90% or more (almost completely withered)) | 5 (Herbicidal ratio of 90% or more (almost completely withered)) | 4 (Herbicidal ratio of 70% or higher and lower than 90%) | 0 (Herbicidal ratio of 5% or lower (almost no effect)) | 5 (Herbicidal ratio of 90% or more (almost completely withered)) | 0 (Herbicidal ratio of 5% or lower (almost no effect)) | 5 (Herbicidal ratio of 90% or more (almost completely withered)) | 5 (Herbicidal ratio of 90% or more (almost completely withered)) |
| CON=C(C)CC1CC(O)=C(c2c(OC)cc(C)cc2OC)C1=O (stereo not drawn) [6-103] | 5 (Herbicidal ratio of 90% or more (almost completely withered)) | 5 (Herbicidal ratio of 90% or more (almost completely withered)) | 5 (Herbicidal ratio of 90% or more (almost completely withered)) | 5 (Herbicidal ratio of 90% or more (almost completely withered)) | 0 (Herbicidal ratio of 5% or lower (almost no effect)) | 5 (Herbicidal ratio of 90% or more (almost completely withered)) | 0 (Herbicidal ratio of 5% or lower (almost no effect)) | 0 (Herbicidal ratio of 5% or lower (almost no effect)) | 5 (Herbicidal ratio of 90% or more (almost completely withered)) | 0 (Herbicidal ratio of 5% or lower (almost no effect)) | 5 (Herbicidal ratio of 90% or more (almost completely withered)) | 5 (Herbicidal ratio of 90% or more (almost completely withered)) |
